Measured values: patent US9266876B2 (Actelion Pharmaceuticals Ltd., priority 2012, dated 2016)

Columns and labels:
[1] = target: CXCR3 (Homo sapiens (Human), UniProt P49682); assay: Receptor internalization assay; format: cell-based; conditions: human whole blood; final CXCL10 concentration 9 nM; 30 min 37° C.; CXCR3 cell surface expression on CD3 positive cells, flow cytometer; read-out: Internalization IC50
How it was run: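 In human whole blood, compounds were incubated with CXCL10 (9 nM final) for 30 min at 37 °C to drive receptor internalization, then stained with anti-CXCR3/CD3 antibodies and lysed of red cells. Flow cytometry measured mean surface CXCR3 fluorescence on CD3+ cells, and IC50 came from single-site dose-response fits.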

[2] = target: human CXCR3A (Homo sapiens (Human), UniProt P49682); assay: FLIPR assay; format: cell-based; conditions: CHO-K1 cells expressing the human CXCR3A coupled to Galpha(16); CXCL10 agonist 20 nM; Fluo-4-AM fluorescence; mean values if determined several times
Sequence of human CXCR3A (P49682 whole entry): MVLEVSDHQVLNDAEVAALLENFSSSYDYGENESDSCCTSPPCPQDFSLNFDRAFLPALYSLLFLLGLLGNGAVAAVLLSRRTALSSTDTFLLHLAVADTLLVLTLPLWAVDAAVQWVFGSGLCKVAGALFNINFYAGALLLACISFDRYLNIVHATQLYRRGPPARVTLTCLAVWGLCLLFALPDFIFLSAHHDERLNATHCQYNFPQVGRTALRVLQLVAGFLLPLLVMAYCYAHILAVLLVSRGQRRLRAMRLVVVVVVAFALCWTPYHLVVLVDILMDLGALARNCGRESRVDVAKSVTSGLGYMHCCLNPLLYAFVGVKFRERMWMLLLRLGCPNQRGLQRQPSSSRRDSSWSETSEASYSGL
How it was run: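 CHO-K1 cells expressing CXCR3A coupled to Gα16 were loaded with Fluo-4-AM for 1 h in Hepes-buffered HBSS, pH 7.4, with 5 mM probenecid. Compound dilutions were added on the FLIPR, followed by CXCL10 (added as a 20 nM solution). Baseline-subtracted peak fluorescence was fitted to a single-site curve for IC50.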

Sequence of CXCR3 (P49682 whole entry): as above

C[C@@H]1CN(c2sc(C(F)(F)F)nc2-c2nc3ccccc3n2C)CCN1C(=O)Cn1cccn1 [Example 184, 1-{(R)-2-Methyl-4-[4-(1-methyl-1H-benzoimidazol-2-yl)-2-trifluoromethyl-thiazol-5-yl]-piperazin-1-yl}-2-pyrazol-1-yl-ethanone]
IC50 [1]: 3420 nM
IC50 [2]: 53 nM

COCCn1c(-c2nc(C(F)(F)F)sc2N2CCN(C(=O)Cn3cccn3)[C@H](C)C2)nc2ccccc21 [Example 185, 1-((R)-4-{4-[1-(2-Methoxy-ethyl)-1H-benzoimidazol-2-yl]-2-trifluoromethyl-thiazol-5-yl}-2-methyl-piperazin-1-yl)-2-pyrazol-1-yl-ethanone]
IC50 [1]: 6620 nM
IC50 [2]: 37 nM

C[C@@H]1CN(c2scnc2-c2nc3ccccc3[nH]2)CCN1C(=O)Cc1ccccc1-n1nccn1 [Example 186, 1-{(R)-4-[4-(1H-Benzoimidazol-2-yl)-thiazol-5-yl]-2-methyl-piperazin-1-yl}-2-(2-[1,2,3]triazol-2-yl-phenyl)-ethanone]
IC50 [1]: 1610 nM
IC50 [2]: 4 nM

C[C@@H]1CN(c2scnc2-c2nc3ccccc3[nH]2)CCN1C(=O)CN1C(=O)C(F)(F)c2ccccc21 [Example 187, 1-(2-{(R)-4-[4-(1H-Benzoimidazol-2-yl)-thiazol-5-yl]-2-methyl-piperazin-1-yl}-2-oxo-ethyl)-3,3-difluoro-1,3-dihydro-indol-2-one]
IC50 [1]: 1110 nM
IC50 [2]: 0.3 nM

C[C@@H]1CN(c2scnc2-c2nc3ccccc3[nH]2)CCN1C(=O)Cn1cc(-c2ccccc2)nn1 [Example 188, 1-{(R)-4-[4-(1H-Benzoimidazol-2-yl)-thiazol-5-yl]-2-methyl-piperazin-1-yl}-2-(4-phenyl-[1,2,3]triazol-1-yl)-ethanone]
IC50 [1]: 3820 nM
IC50 [2]: 4 nM

C[C@@H]1CN(c2sc(C(F)(F)F)nc2-c2nc3ccccc3[nH]2)CCN1C(=O)Cn1cc(-c2ccccc2)nn1 [Example 189, 1-{(R)-4-[4-(1H-Benzoimidazol-2-yl)-2-trifluoromethyl-thiazol-5-yl]-2-methyl-piperazin-1-yl}-2-(4-phenyl-[1,2,3]triazol-1-yl)-ethanone]
IC50 [1]: 1760 nM
IC50 [2]: 2 nM

C[C@@H]1CN(c2sc(C(F)(F)F)nc2-c2nc3ccccc3[nH]2)CCN1C(=O)Cc1cccc2cccnc12 [Example 190, 1-{(R)-4-[4-(1H-Benzoimidazol-2-yl)-2-trifluoromethyl-thiazol-5-yl]-2-methyl-piperazin-1-yl}-2-quinolin-8-yl-ethanone]
IC50 [1]: 514 nM
IC50 [2]: 1 nM

Cc1cnn(CC(=O)N2CCN(c3sc(C(F)(F)F)nc3-c3nc4ccccc4[nH]3)C[C@H]2C)c1 [Example 191, 1-{(R)-4-[4-(1H-Benzoimidazol-2-yl)-2-trifluoromethyl-thiazol-5-yl]-2-methyl-piperazin-1-yl}-2-(4-methyl-pyrazol-1-yl)-ethanone]
IC50 [1]: 470 nM
IC50 [2]: 1 nM

Cc1cc(C)n(CC(=O)N2CCN(c3sc(C(F)(F)F)nc3-c3nc4ccccc4[nH]3)C[C@H]2C)n1 [Example 192, 1-{(R)-4-[4-(1H-Benzoimidazol-2-yl)-2-trifluoromethyl-thiazol-5-yl]-2-methyl-piperazin-1-yl}-2-(3,5-dimethyl-pyrazol-1-yl)-ethanone]
IC50 [1]: 116 nM
IC50 [2]: 1 nM

C[C@@H]1CN(c2sc(C(F)(F)F)nc2-c2nc3ccccc3[nH]2)CCN1C(=O)Cn1ccc(C(F)(F)F)n1 [Example 193, 1-{(R)-4-[4-(1H-Benzoimidazol-2-yl)-2-trifluoromethyl-thiazol-5-yl]-2-methyl-piperazin-1-yl}-2-(3-trifluoromethyl-pyrazol-1-yl)-ethanone]
IC50 [1]: 210 nM
IC50 [2]: 1 nM

C[C@@H]1CN(c2sc(C(F)(F)F)nc2-c2nc3ccccc3[nH]2)CCN1C(=O)Cn1cncn1 [Example 194, 1-{(R)-4-[4-(1H-Benzoimidazol-2-yl)-2-trifluoromethyl-thiazol-5-yl]-2-methyl-piperazin-1-yl}-2-[1,2,4]triazol-1-yl-ethanone]
IC50 [1]: 1410 nM
IC50 [2]: 8 nM

Cc1nnc(CC(=O)N2CCN(c3sc(C(F)(F)F)nc3-c3nc4ccccc4[nH]3)C[C@H]2C)o1 [Example 195, 1-{(R)-4-[4-(1H-Benzoimidazol-2-yl)-2-trifluoromethyl-thiazol-5-yl]-2-methyl-piperazin-1-yl}-2-(5-methyl-[1,3,4]oxadiazol-2-yl)-ethanone]
IC50 [1]: 2710 nM
IC50 [2]: 8 nM

C[C@@H]1CN(c2sc(C(F)(F)F)nc2-c2nc3ccccc3[nH]2)CCN1C(=O)Cc1nnc(-c2ccccc2)o1 [Example 196, 1-{(R)-4-[4-(1H-Benzoimidazol-2-yl)-2-trifluoromethyl-thiazol-5-yl]-2-methyl-piperazin-1-yl}-2-(5-phenyl-[1,3,4]oxadiazol-2-yl)-ethanone]
IC50 [1]: 6560 nM
IC50 [2]: 6 nM

C[C@@H]1CN(c2sc(C(F)(F)F)nc2-c2nc3ccccc3[nH]2)CCN1C(=O)Cn1nccn1 [Example 197, 1-{(R)-4-[4-(1H-Benzoimidazol-2-yl)-2-trifluoromethyl-thiazol-5-yl]-2-methyl-piperazin-1-yl}-2-[1,2,3]triazol-2-yl-ethanone]
IC50 [1]: 5310 nM
IC50 [2]: 8 nM

COC(=O)c1ccn(CC(=O)N2CCN(c3sc(C(F)(F)F)nc3-c3nc4ccccc4[nH]3)C[C@H]2C)n1 [Example 198, 1-(2-{(R)-4-[4-(1H-Benzoimidazol-2-yl)-2-trifluoromethyl-thiazol-5-yl]-2-methyl-piperazin-1-yl}-2-oxo-ethyl)-1H-pyrazole-3-carboxylic acid methyl ester]
IC50 [1]: 6900 nM
IC50 [2]: 2 nM

Cc1ccc(CC(=O)N2CCN(c3sc(C(F)(F)F)nc3-c3nc4ccccc4[nH]3)C[C@H]2C)cn1 [Example 199, 1-{(R)-4-[4-(1H-Benzoimidazol-2-yl)-2-trifluoromethyl-thiazol-5-yl]-2-methyl-piperazin-1-yl}-2-(6-methyl-pyridin-3-yl)-ethanone]
IC50 [1]: 658 nM
IC50 [2]: 0.4 nM

C[C@@H]1CN(c2sc(C(F)(F)F)nc2-c2nc3ccccc3[nH]2)CCN1C(=O)Cc1ccccc1-n1nccn1 [Example 200, 1-{(R)-4-[4-(1H-Benzoimidazol-2-yl)-2-trifluoromethyl-thiazol-5-yl]-2-methyl-piperazin-1-yl}-2-(2-[1,2,3]triazol-2-yl-phenyl)-ethanone]
IC50 [1]: 627 nM
IC50 [2]: 28 nM

C[C@@H]1CN(c2sc(C(F)(F)F)nc2-c2nc3ccccc3[nH]2)CCN1C(=O)Cc1cccc(-n2nccn2)c1 [Example 201, 1-{(R)-4-[4-(1H-Benzoimidazol-2-yl)-2-trifluoromethyl-thiazol-5-yl]-2-methyl-piperazin-1-yl}-2-(3-[1,2,3]triazol-2-yl-phenyl)-ethanone]
IC50 [1]: 2860 nM
IC50 [2]: 2 nM

C[C@@H]1CN(c2sc(C(F)(F)F)nc2-c2nc3ccccc3[nH]2)CCN1C(=O)Cn1cc2cccnc2n1 [Example 202, 1-{(R)-4-[4-(1H-Benzoimidazol-2-yl)-2-trifluoromethyl-thiazol-5-yl]-2-methyl-piperazin-1-yl}-2-pyrazolo[3,4-b]pyridin-2-yl-ethanone]
IC50 [1]: 44 nM
IC50 [2]: 1 nM

C[C@@H]1CN(c2sc(C(F)(F)F)nc2-c2nc3ccccc3[nH]2)CCN1C(=O)Cc1ccccc1-n1cccn1 [Example 203, 1-{(R)-4-[4-(1H-Benzoimidazol-2-yl)-2-trifluoromethyl-thiazol-5-yl]-2-methyl-piperazin-1-yl}-2-(2-pyrazol-1-yl-phenyl)-ethanone]
IC50 [1]: 2100 nM
IC50 [2]: 5 nM

C[C@@H]1CN(c2sc(C(F)(F)F)nc2-c2nc3ccccc3[nH]2)CCN1C(=O)Cn1nccc1-c1ccccc1 [Example 204, 1-{(R)-4-[4-(1H-Benzoimidazol-2-yl)-2-trifluoromethyl-thiazol-5-yl]-2-methyl-piperazin-1-yl}-2-(5-phenyl-pyrazol-1-yl)-ethanone]
IC50 [1]: 4180 nM
IC50 [2]: 6 nM

C[C@@H]1CN(c2sc(C(F)(F)F)nc2-c2nc3ccccc3[nH]2)CCN1C(=O)CN1C(=O)C(F)(F)c2ccccc21 [Example 205, 1-(2-{(R)-4-[4-(1H-Benzoimidazol-2-yl)-2-trifluoromethyl-thiazol-5-yl]-2-methyl-piperazin-1-yl}-2-oxo-ethyl)-3,3-difluoro-1,3-dihydro-indol-2-one]
IC50 [1]: 111 nM
IC50 [2]: 2 nM

C[C@@H]1CN(c2sc(C(F)(F)F)nc2-c2nc3ccccc3[nH]2)CCN1C(=O)Cn1cnc2cnccc21 [Example 206, 1-{(R)-4-[4-(1H-Benzoimidazol-2-yl)-2-trifluoromethyl-thiazol-5-yl]-2-methyl-piperazin-1-yl}-2-imidazo[4,5-c]pyridin-1-yl-ethanone]
IC50 [1]: 260 nM
IC50 [2]: 2 nM

C[C@@H]1CN(c2sc(C(F)(F)F)nc2-c2nc3ccccc3[nH]2)CCN1C(=O)Cn1cnc(Br)n1 [Example 207, 1-{(R)-4-[4-(1H-Benzoimidazol-2-yl)-2-trifluoromethyl-thiazol-5-yl]-2-methyl-piperazin-1-yl}-2-(3-bromo-[1,2,4]triazol-1-yl)-ethanone]
IC50 [1]: 332 nM
IC50 [2]: 1 nM

C[C@@H]1CN(c2sc(C(F)(F)F)nc2-c2nc3ccccc3[nH]2)CCN1C(=O)Cc1ccccc1N1CCN(C)CC1 [Example 208, 1-{(R)-4-[4-(1H-Benzoimidazol-2-yl)-2-trifluoromethyl-thiazol-5-yl]-2-methyl-piperazin-1-yl}-2-[2-(4-methyl-piperazin-1-yl)-phenyl]-ethanone]
IC50 [1]: 310 nM
IC50 [2]: 1 nM
